The text below walks through data of US10259815B2, “Gabaergic ligands and their uses” (UWM Research Foundation, Inc., priority 2015, dated 2019).

Values joined by “and” are separate entries in the source; they are usually repeats but may differ in a detail not shown here. Equal entries are not always repeated. “Also recorded” adds a separate entry of the source.

In data set [1] the target is T1, α1, β3, γ2 GABA A receptor (Homo sapiens, UniProt P14867+P18507).
T1 construct: host or cells: HEK-293, stably transfected
As to the kind of experiment: FLIPR functional assay, α1 GABAA receptor subtype in HEK-293 cells. It is filed as cell-based. The text has this: (§1) The FLIPR functional assay is used to determine the EC50 at the α1 and α3 GABAA receptor subtypes. A high EC50 for the α1 subtype would indicate a low chance of adverse effects, including sedation, ataxia, and muscle relaxation. A low α3 EC50 would indicate potential effectiveness as an anxiolytic, antihyperalgesic, and likely an anticonvulsant. See, for example, Liu et al. (Assay. Drug. Dev. Technol. 2008, 6, 781-6) and Joesch et al. (J. Biomol. Screen. 2008, 13, 218-28).
(§2) Compounds tested were synthesized internally and solubilized in DMSO at a 10 mM concentration. GABA was purchase from Sigma (#A2129) and prepared at 100 mM in water.
(§3) HEK-293 cells were stably transfected with the α1, β3, γ2 GABA A receptor subunits (GenBank accession numbers NM_000806.3, NM_000814.5, and NM_198904.1, respectively) or α3, β3, γ2 (NM_000808 for α3) where obtained from ChanTest Co. (Catalog # CT6216 and CT6218, respectively).
(§4) Cells were cultivated in Dulbeco's Modified Eagle's Medium (DMEM, Sigma D5796) supplemented with 10% Fetal Bovine Serum (FBS, Gibco 16000), 0.5 mg/mL Geneticin (Gibco), 0.04 mg/mL Hygromycin B (Gibco), 0.1 mg/mL Zeocin (Gibco) and 20 mM HEPES (Sigma). Cells were grown at 37° C. in a humidified atmosphere of 5% CO2. In the experiments described here frozen cells were used. For this purpose, cells were gown and maintained under confluency during 2-3 weeks and then frozen down at different cell densities using Recovery™ Cell Culture Freezing Medium (Gibco).
(§5) 18 hours prior to the experiment, cells were quickly thawed at 37° C. and seeded on Poly-D-Lys 384 plates (Corning 356663) at a density of 25,000 cells/well and in 25 μL of complete cell medium as described above.
(§6) Membrane potential changes induced by the flux of ions through the receptor were measured as relative fluorescence units (RFU) using the Fluorometric Imaging Plate Reader (FLIPR Tetra®, Molecular Devices) and the FLIPR Membrane Potential Blue Assay kit (Molecular Devices). Prior to the addition of the compounds the medium was removed and cells were loaded with 20 μL of dye prepared in assay buffer composed of Hank's Balanced Salt Solution (HBSS with Ca^+2 and Mg^+2; Gibco 14025) with 20 mM Hepes. After 1 hour of incubation at room temperature (RT), the plate was placed into the FLIPR instrument and experiments were run adding first 10 μL from the 1st addition plate (compound plate) and after a 3 minutes incubation adding 20 μL of the 2nd addition or agonist plate. The response to this last GABA addition was monitored for another 3 minutes. […]
(§7) Data Analysis. The difference between the maximum and the minimum (Max-Min) fluorescence reached during the first addition or read interval and the second read interval were used for data analysis (agonist and potentiation, respectively). […]

Data set [2] addresses T2, α3, β3, γ2 GABA A receptor (Homo sapiens, UniProt P18507+P34903).
T2 construct: host or cells: HEK-293, stably transfected
Nature of the data set: FLIPR functional assay, α3 GABAA receptor subtype in HEK-293 cells. The data set is classed as cell-based. Particulars: α3 Binding EC50, FLIPR membrane potential, potentiation of GABA EC20.
Excerpt: as §1, §2, §3, §4, §5, §6, §7

A further data set concerns Male NIH Swiss mice. As to the kind of experiment: Rotorod assay (ataxia). It is filed as in vivo. The protocol:
Male NIH Swiss mice (n=10) were dosed i.p. with vehicle (1% carboxymethyl cellulose) or one of the test compounds (10 or 30 mg/kg) 30 minutes prior to being tested on the rotorod. Mice were placed on a rod for two minutes at 4 revolutions per minute. […] Mice that fell twice failed the testing.
The rotorod assay (FIG. 5) is used to determine the ataxic effects, generally stemming from the α1 subtype, that compounds have in test subjects. Mice are trained to run on a slow, rotating cylinder for two minutes, and failure to stay on the rod may be due to ataxia. […] Each set of compounds were tested against a vehicle.
Male NIH Swiss mice (n=10/group) were trained on a rotorod (Ugo Basile 7650) at 4 r.p.m. for two minutes per training session prior to testing. On test day, mice were dosed i.p. with either vehicle (1% carboxymethyl cellulose) or one of the test compounds (10 or 30 mg/kg) 30 minutes prior to testing.

The test system of a further data set is Mice. Nature of the data set: scMET test for anticonvulsant activity, mice. The data set is classed as in vivo. The protocol:
Mice were then dosed i.p. with 5, 10, 25, or 50 mg/kg of KRM-II-81.

Another data set has as its target CYP3A4 (Homo sapiens, UniProt P08684). Nature of the data set: CYP substrate assessment, CYP3A4.
In another data set the target is CYP2C9 (Homo sapiens, UniProt P11712). Nature of the data set: CYP substrate assessment, CYP2C9.
CYP2C9, sequence (P11712 whole entry): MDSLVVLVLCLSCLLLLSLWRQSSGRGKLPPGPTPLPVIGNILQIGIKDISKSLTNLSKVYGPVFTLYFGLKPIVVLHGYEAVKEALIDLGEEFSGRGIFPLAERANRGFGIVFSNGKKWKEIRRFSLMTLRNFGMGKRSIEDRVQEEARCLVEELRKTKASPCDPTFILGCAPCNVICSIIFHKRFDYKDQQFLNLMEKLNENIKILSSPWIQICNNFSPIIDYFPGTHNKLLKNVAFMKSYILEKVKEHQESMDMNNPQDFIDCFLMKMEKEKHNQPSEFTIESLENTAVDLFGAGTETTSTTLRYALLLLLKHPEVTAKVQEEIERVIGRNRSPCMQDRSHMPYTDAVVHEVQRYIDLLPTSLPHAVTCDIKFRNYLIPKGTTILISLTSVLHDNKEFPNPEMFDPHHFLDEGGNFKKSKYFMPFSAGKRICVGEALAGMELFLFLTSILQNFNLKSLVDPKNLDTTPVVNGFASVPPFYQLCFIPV

T2 sequence (P34903 29-492): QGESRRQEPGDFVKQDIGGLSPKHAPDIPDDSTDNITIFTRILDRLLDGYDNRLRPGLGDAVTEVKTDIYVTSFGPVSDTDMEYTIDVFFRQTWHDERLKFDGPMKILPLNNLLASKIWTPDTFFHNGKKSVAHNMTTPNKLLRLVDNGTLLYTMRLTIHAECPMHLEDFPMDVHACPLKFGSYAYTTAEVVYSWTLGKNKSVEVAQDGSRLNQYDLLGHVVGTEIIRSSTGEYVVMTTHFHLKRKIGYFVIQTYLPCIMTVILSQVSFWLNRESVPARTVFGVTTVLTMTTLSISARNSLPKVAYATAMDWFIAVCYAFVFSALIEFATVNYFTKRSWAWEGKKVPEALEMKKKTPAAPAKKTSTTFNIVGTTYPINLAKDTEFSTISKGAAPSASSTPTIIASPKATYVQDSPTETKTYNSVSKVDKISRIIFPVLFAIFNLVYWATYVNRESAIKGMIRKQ
T2 sequence (P28472 26-473 partner): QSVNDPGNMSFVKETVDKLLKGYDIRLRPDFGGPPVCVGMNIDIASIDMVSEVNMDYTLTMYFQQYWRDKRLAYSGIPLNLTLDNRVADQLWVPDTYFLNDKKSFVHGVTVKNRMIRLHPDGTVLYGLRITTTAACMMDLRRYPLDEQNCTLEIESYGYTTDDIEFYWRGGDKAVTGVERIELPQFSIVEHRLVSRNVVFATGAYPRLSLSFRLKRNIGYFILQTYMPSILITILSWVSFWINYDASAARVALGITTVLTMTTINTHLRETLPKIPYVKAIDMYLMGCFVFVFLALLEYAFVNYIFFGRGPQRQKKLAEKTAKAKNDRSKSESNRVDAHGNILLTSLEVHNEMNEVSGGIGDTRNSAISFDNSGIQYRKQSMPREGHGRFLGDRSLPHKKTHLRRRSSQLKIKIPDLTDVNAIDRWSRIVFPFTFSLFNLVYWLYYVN
T2 sequence (P18507 40-475): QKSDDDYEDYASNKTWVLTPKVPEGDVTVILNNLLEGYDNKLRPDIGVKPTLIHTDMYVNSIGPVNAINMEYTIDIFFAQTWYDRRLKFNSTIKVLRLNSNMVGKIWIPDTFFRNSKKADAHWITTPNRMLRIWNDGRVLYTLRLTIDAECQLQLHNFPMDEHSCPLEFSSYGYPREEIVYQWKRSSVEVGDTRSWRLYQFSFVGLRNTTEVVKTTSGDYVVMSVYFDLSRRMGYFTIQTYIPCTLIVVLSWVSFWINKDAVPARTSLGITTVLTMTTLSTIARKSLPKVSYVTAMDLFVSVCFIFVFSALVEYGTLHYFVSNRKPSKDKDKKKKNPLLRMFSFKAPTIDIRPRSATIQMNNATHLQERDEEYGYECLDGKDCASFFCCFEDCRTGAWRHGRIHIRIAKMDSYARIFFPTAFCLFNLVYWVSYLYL
T1 sequence (P14867 28-456): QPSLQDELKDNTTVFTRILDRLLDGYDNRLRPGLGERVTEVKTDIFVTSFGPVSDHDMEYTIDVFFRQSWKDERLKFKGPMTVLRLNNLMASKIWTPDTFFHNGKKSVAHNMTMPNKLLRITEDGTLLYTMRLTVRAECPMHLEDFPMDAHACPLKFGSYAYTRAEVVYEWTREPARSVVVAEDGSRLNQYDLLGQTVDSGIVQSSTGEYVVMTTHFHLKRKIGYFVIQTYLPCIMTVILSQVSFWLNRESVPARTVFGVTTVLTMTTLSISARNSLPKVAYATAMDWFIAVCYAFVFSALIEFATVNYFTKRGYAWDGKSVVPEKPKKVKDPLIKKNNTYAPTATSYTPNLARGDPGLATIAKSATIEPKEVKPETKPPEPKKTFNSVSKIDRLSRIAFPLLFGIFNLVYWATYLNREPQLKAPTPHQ
T1 sequence (P28472 26-473 partner): as the sequence (P28472 26-473 partner) above
T1 sequence (P18507 40-475): as the sequence (P18507 40-475) above
CYP3A4, sequence (P08684 whole entry): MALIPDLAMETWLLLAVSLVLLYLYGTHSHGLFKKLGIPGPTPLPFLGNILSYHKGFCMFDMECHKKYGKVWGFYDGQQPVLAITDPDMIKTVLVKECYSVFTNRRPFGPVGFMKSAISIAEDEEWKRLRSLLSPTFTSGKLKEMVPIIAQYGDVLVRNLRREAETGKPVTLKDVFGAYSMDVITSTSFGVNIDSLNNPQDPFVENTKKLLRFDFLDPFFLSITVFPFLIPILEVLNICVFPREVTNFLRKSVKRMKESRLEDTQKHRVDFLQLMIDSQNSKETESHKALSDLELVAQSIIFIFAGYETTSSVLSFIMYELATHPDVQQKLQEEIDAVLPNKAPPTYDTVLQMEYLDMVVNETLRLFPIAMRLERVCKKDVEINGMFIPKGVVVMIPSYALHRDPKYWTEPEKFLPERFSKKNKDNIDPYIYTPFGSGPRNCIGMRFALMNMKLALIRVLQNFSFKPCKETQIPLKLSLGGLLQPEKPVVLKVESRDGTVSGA

For orientation: EC50 means the concentration that produces a half-maximal response. `C#Cc1ccc2c(c1)C(c1ccccc1F)=NCc1c(-c3cnco3)ncn1-2` [KRM-II-18B, 5-(8-Ethynyl-6-(2-fluorophenyl)-4H-benzo[f]imidazo[1,5-a][1,4]diazepin-3-yl)oxazole]: the EC50 in data set [1] is > 20000 nM; in data set [2], 11.2 nM. For the same compound, in the data set on Male NIH Swiss mice (30 mg/kg i.p., 30 minutes prior, 4 r.p.m., two minutes), the “rotorod performance at 30 mg/kg” value was “failed multiple times”.

A word on the ED50: it is the midpoint of the dose-response relation. A lower ED50 goes with greater potency. For `C#Cc1ccc2c(c1)C(c1ccccn1)=NCc1c(-c3cnco3)ncn1-2` [KRM-II-81, 5-(8-Ethynyl-6-(pyridin-2-yl)-4H-benzo[f]imidazo[1,5-a][1,4]diazepin-3-yl)oxazole], the EC50 in data set [1] was > 20000 nM; in data set [2] it was 970 nM and 937 nM. Also, the “ataxic / sedative effects in rotarod assay” value with Male NIH Swiss mice (10 or 30 mg/kg i.p.) is “less sedative effects than HZ-166; also recorded: no significant ataxic concerns”. Also, the “Protected (animals protected/tested)” value was 0/8 with Mice (Dose 5 mg/kg i.p.), 5/8 with Mice (Dose 10 mg/kg i.p.), 7/8 in the data set with Mice (Dose 25 mg/kg i.p.) and 8/8 with Mice (Dose 50 mg/kg i.p.). Further, the ED50 in the data set on Mice (Mus musculus, ip, half hour time point, mice) is 10.9 mg/kg. Moreover, the “substrate of CYP3A4” value on CYP3A4 is “not found to be a substrate”. Moreover, at CYP2C9, the “substrate of CYP2C9” value was “not found to be a substrate”.
